Molecules are shown by their SMILES. Residues, ends and D or L forms follow the SMILES beside them. *: point of attachment. Boc = CC(C)(C)OC(=O)* A value given as a limit tells only on which side of the number the result lay.

In general, melting point refers to the temperature of the solid-liquid transition.

The molecule `Cc1oc(-c2ccccc2)nc1COc1cccc(C=CC=Cc2nnn[nH]2)c1` displayed a melting point of 201 to 202 °C.
Turning to `CCCCCCOc1cccc(C[C@H](NC(=O)c2cccc(-c3ncco3)c2)[C@H](O)CNCc2cccc(CC)c2)c1`, the melting point was in the range of 117 to 120 °C.
In turn, `O=C(NCCCO)c1cccc(Nc2nccc(-c3ccnc(NCCCO)c3)n2)c1` gave a melting point of 153 to 154 °C.
As for `COc1ccc(OC)c(Cc2cnc3nc(N)nc(N)c3c2C)c1`, the melting point fell in the range of 252 to 254 °C.
Take `CN(c1ccccc1)S(=O)(=O)c1ccc(C#CC(C)(O)C(F)(F)F)cc1` (stereo unspecified): the melting point was in the range of 116 to 118 °C.
On to `COc1ccc(OCC(O)CN2CCC(Nc3nc4c(C)cccc4n3Cc3nc(C)ccc3O)CC2)cc1` (stereo unspecified), for which the melting point worked out at 227 °C.
On to `Cc1oncc1C(=O)Nc1ccc(-n2nc(C(F)(F)F)cc2C2CC2)cc1`, for which the melting point is 90 to 95 °C.
`O=C(C1CCC(Nc2ncc3ncnc(Nc4ccc(F)c(Cl)c4)c3n2)CC1)N1CCNCC1` (stereo unspecified) yielded a melting point of 178 to 182 °C.
Take `O=[N+]([O-])c1cc(Br)cc(O)c1O`: the melting point lay in the range of 102 to 105 °C.
For the molecule `CC(C)C(=N)Nc1ccccc1N1CCOCC1`, the melting point was determined as 138 °C.
On to `N#CC(C#N)=C1CC=CO1`, for which the melting point is 194 to 196 °C.
The molecule `C=CCN1CCN(C(=O)OC2C3=C(OCCS3)C(=O)N2c2ccc3ccc(Cl)nc3n2)CC1` (stereo unspecified) had a melting point of 254 °C.
`COc1ccc(C=Cc2ccc([N+](=O)[O-])cc2)cc1C` gave a melting point of 109 to 111 °C.
`CNCc1ccc(-c2ccc(OC)c(Br)c2)cc1`: the melting point fell in the range of 65 to 68 °C.
The molecule `COC(=O)c1ccc(CC(C#N)(c2ccccc2Cl)N2CCOCC2)cc1` (stereo unspecified) yielded a melting point of 116 to 118 °C.
As for `CCC(=O)Cc1cc2cc(OCCNC[C@H](O)COc3ccccc3)ccc2o1`, the melting point lay in the range of 99 to 100 °C.
In turn, `Nc1cc(C=O)nc(CC2CC2)c1F` showed a melting point of 99 to 100 °C.
Take `CCCCOC(=O)c1c(CSc2nccn2C)nc2cc(OC)c(OC)cc2c1-c1ccc(OC)c(OC)c1`: the melting point lay in the range of 131 to 132 °C.
With `CCc1ccc(Nc2c(C#N)cnc3cc(OC)c(OC)cc23)cc1`, the melting point fell in the range of 248 to 250 °C.
Next, `Cn1cc2c(O)c(C(=O)c3ccccc3)cnc2n1`: 286 to 290 °C; `CCn1cc(C(=O)O)c(=O)cc1-c1ccc(OC)c(OC)c1`: 232 to 234 °C.
Molecule `COc1ccc(N2CCN(c3c(C)c(C)c4c(c3C)C(=CCc3ccccc3)C(C)(C)O4)CC2)cc1` displayed a melting point of 166 to 167 °C.
Consider `N#CCOc1cc2c(cc1C#Cc1ccccc1)NC(=O)CC(c1cccc(-n3ccnc3)c1)=N2`, for which the melting point was 214 °C.
In the case of `CCCCCCCCCCCCCCCCCCc1c(C)[nH]c(C(=O)OCC)c1C`, the melting point lay within 76 to 78 °C.
In turn, `COC(=O)c1cc(C(=O)NC(C)C(=O)OC)c2ccc(Cc3ccc(F)cc3)nc2c1O` (stereo unspecified) had a melting point of 157 to 158 °C.
For `Cc1c(NCCCN2CCN(c3ccccc3O)CC2)n(C)c(=O)n(C)c1=O`, the melting point lay within 203 to 205 °C.
Consider `COc1cccc2cc(C(=O)N[C@@H](CC(N)=O)C(=O)N[C@@H](Cc3ccccc3)[C@H](O)C(=O)N3C[C@@H](Cl)C[C@H]3C(=O)NC(C)(C)C)oc12`, for which the melting point lay within 125 to 136 °C.
Turning to `COC1=C(OC)C(=O)C2=C(CC(CCCCCCCCO)C2)C1=O`, the melting point lay in the range of 56 to 58 °C.
Next, `CCCCC(CNc1nc(C)c(OC(=O)OCC)c(C)n1)c1ccccc1` (stereo unspecified): 105 to 107 °C.
With `CNC(=O)C(=O)CCCCCCS(=O)(=O)c1ccc(-c2ccccc2)cc1`, the melting point lay within 134 to 135 °C.
`FC(F)(F)c1ccc(NC(=S)Nc2cc(C(F)(F)F)nc(C(F)(F)F)c2)cc1`: the melting point lay within 125 to 132 °C.
Molecule `CC(C)(C)OC(=O)Nc1ccc(NC(=O)OC(C)(C)C)c(Br)c1` had a melting point of 130 °C.
In the case of `OC(CNCCN(c1ccccc1)c1ccccc1)COc1ccccc1` (stereo unspecified), the melting point was 95 to 96 °C.
As for `CCC(=O)NCC[C@@H]1CCc2cc(O)c3c(c21)CCO3`, the melting point was 149 to 152 °C.
For `CCCCCN(C)C(=O)c1ccc(Cl)nn1`, the melting point is 98 to 101 °C.
With `OC1CSC(Oc2cccnc2-c2cncnc2)C(O)C1O` (stereo unspecified), the melting point stood at 195 °C.
Molecule `Cc1nnc(CNC(=O)CN(C)C)n1-c1ccc(Cl)cc1C(=O)c1ccccc1` displayed a melting point of 176 to 178 °C.
Turning to `CCN(CC)c1ccc(F)c2nc3n(c12)CCCN3c1ccc(Cl)cc1Cl`, the melting point is 170 to 172 °C.
`COC(=O)c1cccc2[nH]cc(CC[N+](=O)[O-])c12` registered a melting point of 103 °C.
Consider `NS(=O)(=O)c1ccc(CCN2CCN(c3ccncc3)CC2)cc1`, for which the melting point lay within 203 to 204 °C.
In turn, `COC(=O)C1CCC(=O)N1C(=O)Nc1ccccc1` (stereo unspecified) had a melting point of 91 to 92 °C.
`Cc1noc(NS(=O)(=O)c2ccccc2-c2ccc(-c3ncco3)cc2CN(C)C(=O)c2cccc(F)c2)c1C` registered a melting point of 125 to 135 °C.
The molecule `Cc1nc2ccc(C)c(Sc3ccncc3)c2c(=O)[nH]1` came in with a melting point of 235 to 238 °C.
Molecule `CCCCCCCCCCCCCCCCCCOc1cc(OCCCOc2ccc(S(C)(=O)=O)cc2)cc(N(CC(=O)OC)CC(=O)OC)c1` showed a melting point of 70 to 72 °C.
In turn, `Cc1cc(O)cc2c1N(C)C1N(C)CCC21C` (stereo unspecified) came in with a melting point of 146 to 148 °C.
`C#CCN1C(=O)NC(C)(C)C1=O` had a melting point of 156 to 160 °C.
In turn, `CCOC(=O)C(=O)Nc1cc(C#N)cc(NC(=O)C(=O)OCC)c1` had a melting point of 189 to 190 °C.
In turn, `COc1ccc2c(c1)c1c3c(c(-c4ccccc4Cl)cc1n2CCC(=O)O)C(=O)NC3=O` yielded a melting point of 277 °C.
In the case of `COc1cccc(Sc2c(O)c3c(Cl)cc(Cl)cc3[nH]c2=O)c1`, the melting point fell in the range of 269 to 270 °C.
With `COc1ccc(CNC=C2C(=O)Nc3cc(OC)c(OC)cc32)cc1OC`, the melting point is 198 to 200 °C.
`CC(C)CC(NC(=O)C(Cc1ccc(O)cc1)NC(=O)OC(C)(C)C)C(=O)NCC(=O)O` (stereo not drawn) (Boc-Tyr-Leu-Gly-OH; configuration not given here): the melting point fell in the range of 189 to 190 °C.
To `CC(C)Cc1ccc2c(c1)C(=O)N(c1ccc3c(ccn3C)c1)C2` belongs 193 to 194 °C; to `O=c1ccn(-c2ccc([N+](=O)[O-])cc2)c(=O)[nH]1`, over 300 °C; to `CN1CC2CC2(C(=O)O)C1` (stereo unspecified), 193 to 195 °C.
Next, `CCCCc1nc(C(O)C(C)C)c(C#N)n1Cc1ccc(-c2ccccc2-c2nnnn2C(c2ccccc2)(c2ccccc2)c2ccccc2)cc1` (stereo unspecified): 127 to 128 °C.
Take `COc1cccc2c(=O)c(C)c3sc4ccccc4nc-3c12`: the melting point lay in the range of 170 to 171 °C.
In turn, `O=C(NC1N=C(c2ccccc2F)c2ccccc2NC1=O)c1ccc(Cl)cc1` (racemic) gave a melting point of 258 to 259 °C.
On to `CCN(CC)C(=O)Oc1cc(-c2ccccc2)nc2ccc([N+](=O)[O-])cc12`, for which the melting point is 40 °C.
Regarding `CCOC(=O)c1c(N2CCN(C(=O)c3cccs3)CC2)c2cc(F)cnc2[nH]c1=O`, the melting point lay within 124 to 133 °C.
On to `OC(c1ccccc1)c1ccc2cccnc2c1` (stereo unspecified), for which the melting point was found to be 118 °C.
`CCOc1ccc(C(=O)NCCN2CCC(Oc3ccc(Cl)c(Cl)c3)CC2)cc1` registered a melting point of 118 to 120 °C.
For `CC(=O)NCC1OC(=O)N2c3ccc(-c4ccccc4)cc3CC12` (stereo unspecified), the melting point fell in the range of 181 to 183 °C.
On to `CSC1N=C(N)C=C(Cl)N1c1c([N+](=O)[O-])cc(C(F)(F)F)c(Cl)c1[N+](=O)[O-]` (stereo unspecified), for which the melting point lay in the range of 171 to 175 °C.
To `CCNC(=O)c1c(Cl)cccc1[Si](C)(C)CBr` belongs 98 to 99 °C.
On to `O=C(O)c1c2nc3ccccc3c-2[nH]c2ccc(F)cc12`, for which the melting point is over 243 °C.
In turn, `CCOc1cc(-c2cc(C(F)(F)F)n3ncc(-c4cc(C)nc(C)c4)c3n2)ccc1C(F)(F)F` registered a melting point of 257 °C.
Molecule `CCc1ccc(S(=O)(=O)N(c2ccc(Cl)cc2[N+](=O)[O-])C(C)C)cc1` had a melting point of 117 to 118 °C.
As for `CC=C1C(=O)N2C(C(=O)OCc3ccc([N+](=O)[O-])cc3)=C(SCCNC(=O)OCc3ccc([N+](=O)[O-])cc3)CC12` (stereo unspecified), the melting point was in the range of 160 to 161 °C.
To `CC(=O)OC1CC(CO)OC1n1ccc(=O)[nH]c1=O` (stereo unspecified) belongs 148 to 149 °C; to `Oc1ccc2c(-c3ccc4c(Br)c(O)ccc4c3)noc2c1`, 275 to 277 °C.
Turning to `O=C(COCc1ccccc1Cl)Nc1ccccc1`, the melting point is 130 to 132 °C.
The molecule `CC(C)=CCOc1ccc(C(=O)C=Cc2cccnc2)c(O)c1` returned a melting point of 177 to 179 °C.
Next, `CCCc1nn(C)c2c(=O)n(CCCNc3ccc(OC(C)(C)C(=O)O)cc3)c(C)nc12`: 104 to 106 °C; `COC(=O)c1cc(N)c(C)c(-n2cccc2)c1`: 112 °C; `Clc1ccc(C(c2ccccc2)(c2ccccc2)n2ccnc2)cc1`: 125 °C.
In turn, `CCOC(=O)C1=C(COCc2nnn(CC(N)=O)n2)NC(C)=C(C(=O)OC)C1c1cccc(Cl)c1Cl` (stereo unspecified) yielded a melting point of 130 to 132 °C.
Next, `CN(C)C=CC(=O)c1ccc2ccccc2c1`: 100 to 101 °C.
To `CN(C)C(=S)Oc1ccc(CCCCN)cc1` belongs 89 to 93 °C.
Take `CC(C)(C)c1cc(CO)nn1-c1ccc(S(C)(=O)=O)cc1`: the melting point was in the range of 143 to 146 °C.
Molecule `Cc1cc(N)c(C(=O)Cc2nnnn2C)cc1C` gave a melting point of 162 to 165 °C.
Consider `COC(=O)C1CCN(S(=O)(=O)c2ccc(Cl)c(COc3cccc4c(-n5ccnc5)cc(C)nc34)c2Cl)C1` (stereo unspecified), for which the melting point was determined as 180 °C.
The molecule `CC(C)OC(=O)c1cc(-n2c(=O)c3c(n(C)c2=O)CCC3)c(F)cc1F` showed a melting point of 112 to 115 °C.
`CCCOc1ccc2nc(NC(=O)OCC)sc2c1` gave a melting point of 175 to 177 °C.
`CCOCCc1ccc(OCCNc2ncnc3oc(C)c(C)c23)c(C)c1` gave a melting point of 92 to 93 °C.
`C=CC(O)c1[nH]c(=O)c2c(ccc3nc(Nc4c(Cl)cccc4Cl)n(C)c32)c1C` (stereo unspecified) showed a melting point of 235 to 236 °C.
To `Oc1cc(Br)nnc1-c1ccc(Cl)cc1` belongs 262 to 264 °C.

The values above are taken from a melting point compilation (Tetko et al.; mined from patent text by program, amines drawn as free bases though some values may be those of a salt).
